Measurements as given in ChEMBL document CHEMBL5120753, “Isolation and biological activity of azocine and azocane alkaloids” (Bioorg Med Chem, 2022).
Values after ≈ are worked out from the molar mass of the structure shown.

Experiments:
[1] = target: Polyunsaturated fatty acid 5-lipoxygenase (Homo sapiens) (UniProt P09917); assay: Inhibition of 5-LOX (unknown origin) using arachidonic acid as substrate at 100 uM preincubated for 5 mins followed by substrate addition measured after 15 mins by absorbance based analysis relative to control; conditions: time 20.0 min
[2] = target: Prostaglandin G/H synthase 2 (Homo sapiens) (UniProt P35354); assay: Inhibition of COX-2 (unknown origin) using arachidonic acid as substrate at 100 uM preincubated for 5 mins followed by substrate addition measured after 15 mins by absorbance based analysis relative to control; conditions: time 20.0 min
[3] = Displacement of [3H]-naloxone from opiate receptor in rat cortical brain membrane assessed as inhibition constant incubated for 30 mins by liquid scintillation counter analysis; format: cell membranes
[4] = tested on: Mycobacterium tuberculosis; assay: Antimycobacterial activity against Mycobacterium tuberculosis H37Rv ATCC 27294 assessed as inhibition of bacterial growth by microplate alamar blue assay; format: functional
[5] = tested on: Leishmania infantum; assay: Antileishmanial activity against Leishmania infantum PB75 assessed as cell growth inhibition measured after 72 hrs by MTT assay; format: functional
[6] = target: Prostaglandin G/H synthase 1 (Homo sapiens) (UniProt P23219); assay: Inhibition of COX-1 (unknown origin) using arachidonic acid as substrate at 100 uM preincubated for 5 mins followed by substrate addition measured after 15 mins by absorbance based analysis relative to control; conditions: time 20.0 min
[7] = tested on: Plasmodium falciparum; assay: Antiplasmodial activity against Plasmodium falciparum 3D7 infected in human erythrocytes assessed as cell growth inhibition incubated for 72 hrs by parasite lactate dehydrogenase assay; format: functional, organism-based; conditions: 3D7, 72 h
[8] = Toxicity in iv dosed Swiss-Webster mouse assessed as lethal dose at 7.5 ml/kg, iv administered through tail vein injection by Litchfield-Wilcoxon method; format: organism-based; conditions: in vivo
[9] = tested on: MCF7; assay: Cytotoxicity against human MCF7 cells assessed as cell growth inhibition measured after 48 hrs by MTT assay; format: functional, cell-based; conditions: MCF7, 48 h
[10] = tested on: SMMC-7721; assay: Cytotoxicity against human SMMC-7721 cells assessed as cell growth inhibition at 0.9 uM measured after 48 hrs by MTT assay relative to control; format: functional; design: scale not given: the % may be the effect or the level left
[11] = tested on: HepG2; assay: Cytotoxicity against human HepG2 cells assessed as cell growth inhibition at 0.9 uM measured after 48 hrs by MTT assay relative to control; format: functional; design: scale not given: the % may be the effect or the level left
[12] = Cytotoxicity against vincristine resistant human VJ300 cells assessed as cell growth inhibition; format: functional, cell-based; conditions: VJ-300
[13] = tested on: KB; assay: Cytotoxicity against human KB cells assessed as cell growth inhibition; format: functional, cell-based
[14] = tested on: Plasmodium falciparum; assay: Antiplasmodial activity against chloroquine sensitive Plasmodium falciparum W2 assessed as cell growth inhibition; format: functional, organism-based
[15] = Toxicity in Artemia salina assessed as mortality measured after 24 hrs by microscopic analysis; conditions: read-out: Activity
[16] = tested on: Plasmodium falciparum; assay: Antiplasmodial activity against chloroquine sensitive Plasmodium falciparum D6 assessed as cell growth inhibition; format: functional, organism-based
[17] = tested on: Staphylococcus aureus; assay: Antibacterial activity against Staphylococcus aureus assessed as zone of inhibition measured after 16 hrs by disk diffusion assay; format: functional
[18] = tested on: B16; assay: Cytotoxicity against mouse B16 cells assessed as cell growth inhibition measured after 72 hrs by MTT assay; format: functional, cell-based; conditions: B16, 72 h
[19] = Cytotoxicity against multidrug resistant human VJ300 cells expressing P-gp assessed as cell growth inhibition measured after 72 hrs by MTT assay; format: functional, cell-based; conditions: VJ-300, 72 h
[20] = target: Cholinesterase (Homo sapiens, UniProt P06276); assay: Inhibition of human BChE
[21] = target: Replicase polyprotein 1ab (Severe acute respiratory syndrome coronavirus 2) (UniProt P0DTD1); assay: Binding affinity to SARS-CoV-2 3C-like protease assessed as change in gibbs free energy
[22] = tested on: N2a; assay: Neuroprotective activity against paraquat induced mouse Neuro2a cells assessed as reduction in cell viability at 1 uM pretreated for 1 hr followed by paraquat addition measured after 24 hrs by MTT method relative to control; format: functional; conditions: time 25 hrs
[23] = tested on: L1210; assay: Cytotoxicity against mouse L1210 cells assessed as cell growth inhibition; format: functional, cell-based
[24] = target: Cyclin-dependent kinase 4 (Homo sapiens, UniProt P11802); assay: Inhibition of CDK4 (unknown origin)
[25] = tested on: Trichophyton mentagrophytes; assay: […] activity against Trichophyton mentagrophytes assessed as […]; format: functional
[26] = tested on: Corynebacterium xerosis; assay: Antibacterial activity against Corynebacterium xerosis assessed as bacterial growth inhibition; format: functional
[27] = tested on: Lactiplantibacillus plantarum; assay: Antibacterial activity against Lactobacillus plantarum assessed as inhibition of bacterial growth incubated for 18 to 24 hrs; format: functional; conditions: time 18-24 hrs
[28] = Antioxidant activity assessed as free radical scavenging activity incubated for 30 mins by DPPH assay; format: functional
[29] = tested on: Proteus mirabilis; assay: Antibacterial activity against Proteus mirabilis assessed as inhibition of bacterial growth incubated for 18 to 24 hrs; format: functional; conditions: time 18-24 hrs
[30] = tested on: Staphylococcus epidermidis; assay: Antibacterial activity against Staphylococcus epidermidis assessed as inhibition of bacterial growth incubated for 18 to 24 hrs; format: functional; conditions: time 18-24 hrs
[31] = tested on: U2OS; assay: Cytotoxicity against human U2OS cells assessed as cell growth inhibition incubated for 48 hrs by microplate reader based analysis; format: functional
[32] = tested on: MG-63; assay: Cytotoxicity against human MG-63 cells assessed as cell growth inhibition incubated for 48 hrs by microplate reader based analysis; format: functional; conditions: MG-63, 48 h
[33] = Cytotoxicity against human SOSP-9607 cells assessed as cell growth inhibition incubated for 48 hrs by microplate reader based analysis; format: functional; conditions: SOSP-9607, 48 h
[34] = tested on: SAOS-2; assay: Cytotoxicity against human SAOS-2 cells assessed as cell growth inhibition incubated for 48 hrs by microplate reader based analysis; format: functional; conditions: SAOS-2, 48 h
[35] = tested on: Plasmodium berghei; assay: Antiplasmodial activity against Plasmodium berghei infected in ip dosed Swiss albino mouse assessed as growth inhibition at asexual erythrocytic stage; format: functional; design: scale not given: the % may be the effect or the level left
[36] = tested on: Staphylococcus aureus; assay: Antibacterial activity against Staphylococcus aureus assessed as bacterial growth inhibition; format: functional
[37] = tested on: Mycobacterium tuberculosis; assay: Antimycobacterial activity against Mycobacterium tuberculosis H37Rv assessed as inhibition of bacterial growth; format: functional

Sequence of Cyclin-dependent kinase 4 (P11802 whole entry): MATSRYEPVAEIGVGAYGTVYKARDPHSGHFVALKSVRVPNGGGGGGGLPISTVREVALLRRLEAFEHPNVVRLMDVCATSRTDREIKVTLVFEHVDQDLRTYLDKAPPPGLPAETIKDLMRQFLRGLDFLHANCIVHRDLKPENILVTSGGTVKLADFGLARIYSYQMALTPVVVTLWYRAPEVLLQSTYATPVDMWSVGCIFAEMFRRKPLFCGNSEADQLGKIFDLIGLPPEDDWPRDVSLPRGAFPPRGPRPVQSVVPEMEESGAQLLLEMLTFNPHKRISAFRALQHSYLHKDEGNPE
Sequence of Prostaglandin G/H synthase 2 (Homo sapiens) (P35354 whole entry): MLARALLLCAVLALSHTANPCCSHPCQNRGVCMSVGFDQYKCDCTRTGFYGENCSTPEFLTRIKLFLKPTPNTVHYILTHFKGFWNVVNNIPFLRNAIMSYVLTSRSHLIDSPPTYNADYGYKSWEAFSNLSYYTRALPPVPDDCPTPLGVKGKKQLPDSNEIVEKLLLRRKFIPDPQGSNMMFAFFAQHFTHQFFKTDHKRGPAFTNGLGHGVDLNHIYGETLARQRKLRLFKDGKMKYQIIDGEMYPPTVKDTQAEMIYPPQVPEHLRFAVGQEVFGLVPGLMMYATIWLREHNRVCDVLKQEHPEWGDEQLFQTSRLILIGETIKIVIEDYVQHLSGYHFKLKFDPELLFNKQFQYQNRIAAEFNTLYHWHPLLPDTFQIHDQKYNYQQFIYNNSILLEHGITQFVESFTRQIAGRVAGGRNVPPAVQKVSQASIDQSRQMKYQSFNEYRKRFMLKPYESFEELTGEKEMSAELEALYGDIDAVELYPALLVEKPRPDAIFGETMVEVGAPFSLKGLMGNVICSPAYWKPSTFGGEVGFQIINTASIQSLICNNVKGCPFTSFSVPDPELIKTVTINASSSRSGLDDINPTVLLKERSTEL
Sequence of Polyunsaturated fatty acid 5-lipoxygenase (Homo sapiens) (P09917 whole entry): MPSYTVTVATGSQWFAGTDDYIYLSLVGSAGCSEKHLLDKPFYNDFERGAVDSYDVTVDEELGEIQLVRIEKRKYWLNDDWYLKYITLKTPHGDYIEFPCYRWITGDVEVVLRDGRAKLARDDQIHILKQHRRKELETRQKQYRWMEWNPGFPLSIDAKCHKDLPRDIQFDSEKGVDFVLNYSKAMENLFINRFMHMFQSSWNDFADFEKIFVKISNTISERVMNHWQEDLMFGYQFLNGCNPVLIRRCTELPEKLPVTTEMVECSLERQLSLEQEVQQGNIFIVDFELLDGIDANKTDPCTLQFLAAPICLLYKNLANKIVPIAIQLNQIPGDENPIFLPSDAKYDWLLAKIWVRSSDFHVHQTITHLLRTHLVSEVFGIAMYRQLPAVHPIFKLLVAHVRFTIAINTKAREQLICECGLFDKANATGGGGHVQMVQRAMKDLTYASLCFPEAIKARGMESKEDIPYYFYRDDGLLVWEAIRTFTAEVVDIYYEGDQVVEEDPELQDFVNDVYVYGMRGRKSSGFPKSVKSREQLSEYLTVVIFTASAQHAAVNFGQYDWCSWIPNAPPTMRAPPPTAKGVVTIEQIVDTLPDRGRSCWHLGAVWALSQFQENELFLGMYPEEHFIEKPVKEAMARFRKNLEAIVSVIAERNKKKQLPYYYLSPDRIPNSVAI
Sequence of Cholinesterase (P06276 whole entry): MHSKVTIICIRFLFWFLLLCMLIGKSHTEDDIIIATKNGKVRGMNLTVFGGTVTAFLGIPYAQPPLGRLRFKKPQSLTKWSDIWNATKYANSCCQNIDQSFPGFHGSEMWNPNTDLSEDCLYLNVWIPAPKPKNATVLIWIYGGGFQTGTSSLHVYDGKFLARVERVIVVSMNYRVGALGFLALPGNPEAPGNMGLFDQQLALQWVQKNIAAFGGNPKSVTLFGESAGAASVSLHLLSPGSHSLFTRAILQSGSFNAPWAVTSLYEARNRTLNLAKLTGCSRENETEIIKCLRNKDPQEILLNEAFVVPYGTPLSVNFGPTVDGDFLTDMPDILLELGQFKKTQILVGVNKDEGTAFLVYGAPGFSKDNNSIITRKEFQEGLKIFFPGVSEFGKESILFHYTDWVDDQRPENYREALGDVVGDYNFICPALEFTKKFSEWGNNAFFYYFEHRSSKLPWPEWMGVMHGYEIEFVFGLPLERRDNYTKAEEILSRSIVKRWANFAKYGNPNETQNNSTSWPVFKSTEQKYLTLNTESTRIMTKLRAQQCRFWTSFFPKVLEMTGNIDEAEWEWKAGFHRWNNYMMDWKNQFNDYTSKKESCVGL
Sequence of Prostaglandin G/H synthase 1 (Homo sapiens) (P23219 whole entry): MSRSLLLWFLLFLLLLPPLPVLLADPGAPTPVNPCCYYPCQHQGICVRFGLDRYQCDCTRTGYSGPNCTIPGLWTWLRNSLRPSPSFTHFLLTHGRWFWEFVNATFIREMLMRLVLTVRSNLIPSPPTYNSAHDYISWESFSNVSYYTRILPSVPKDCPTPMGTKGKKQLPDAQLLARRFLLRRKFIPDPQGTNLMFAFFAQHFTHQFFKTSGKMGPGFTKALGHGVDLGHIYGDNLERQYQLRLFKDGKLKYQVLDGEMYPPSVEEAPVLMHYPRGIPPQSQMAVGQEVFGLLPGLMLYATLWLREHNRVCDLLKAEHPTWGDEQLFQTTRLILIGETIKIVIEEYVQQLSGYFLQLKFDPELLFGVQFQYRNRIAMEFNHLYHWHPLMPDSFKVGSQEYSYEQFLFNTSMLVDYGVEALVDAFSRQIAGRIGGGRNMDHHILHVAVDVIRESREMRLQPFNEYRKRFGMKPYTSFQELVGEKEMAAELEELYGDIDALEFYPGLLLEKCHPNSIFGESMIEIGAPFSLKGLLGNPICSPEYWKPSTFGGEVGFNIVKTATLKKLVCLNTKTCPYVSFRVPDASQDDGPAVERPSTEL

With CC[C@H]1[C@@H]2CCN3CC[C@@]4(C(=C2C(=O)OC)Nc2ccccc24)[C@@H]13 [TUBOTAIWINE] as the molecule, how does the inhibition [1] read?
The inhibition was 69.5%.

And the inhibition [2]?
The inhibition was 90.4%.

And the Ki [3]?
Its Ki is 1.65 µM.

And the MIC [4]?
Its MIC is 100 µg/mL (≈ 308 µM).

And the GI50 [5]?
Its GI50 is 5.9 µg/mL (≈ 18.2 µM).

What about the inhibition [6] of the same molecule?
Its inhibition is 60.8%.

Which IC50 [7] does the source give for COc1cc([C@H]2Oc3ccc4[nH]cc5c4c3[C@@H]2C(=O)NCC5)ccc1OC(=O)C(C)(C)C here?
Its IC50 is 123 µM.

With COc1cc2c(cc1OC)[C@@]13CCN4CC5=CCO[C@H]6CC(=O)N2[C@H]1[C@H]6[C@H]5C[C@H]43 [BRUCINE] as the molecule, how does the LD50 [8] read?
Its LD50 is 12 mg/kg.

What about the IC50 [9] of the same molecule?
The IC50 was 279 µM.

And the Activity [10]?
Its Activity is 92.3%.

What about the Activity [11] of the same molecule?
The Activity was 78.3%.

For COC(=O)[C@@]12COC[C@@H](O)[C@@]3(CO)[C@@H]1CCN3Cc1c2[nH]c2ccccc12, which IC50 [12] is on record?
The IC50 was 7.33 µg/mL (≈ 19.7 µM).

What about the IC50 [13] of the same molecule?
The IC50 was 7.76 µg/mL (≈ 20.8 µM).

For COc1cc([C@H]2Oc3ccc4[nH]cc5c4c3[C@@H]2C(=O)NCC5)ccc1O, which IC50 [14] is on record?
Its IC50 is over 10 µg/mL.

And the mortality at 24 h [15]?
Its mortality at 24 h is 90%.

What about the IC50 [16] of the same molecule?
Its IC50 is over 10 µg/mL.

And the “diameter of the inhibition zone (DIZ)” value [17]?
The value was 19 mm.

Which results are given for C=C1C=C[C@@]23CC[C@@]45C(C2)[C@]4(CCN13)c1cc(OC)ccc1N5C(=O)OC?
IC50 [18]: 2.8 µg/mL (≈ 7.68 µM); IC50 [19]: 4.6 µg/mL (≈ 12.6 µM)

For COC(=O)[C@]12COCC[C@@H]3[C@H](c4c1[nH]c1ccccc41)N(C)CC[C@@H]32 [UNDULIFOLINE], which IC50 [20] is on record?
Its IC50 is 28.5 µM.

With O=C1NCCc2c[nH]c3ccc4c(c23)[C@H]1[C@@H](c1ccc2c(c1)OCO2)O4 as the molecule, how does the IC50 [14] read?
The IC50 was 4.41 µg/mL (≈ 12.7 µM).

What about the IC50 [16] of the same molecule?
Its IC50 is 3.93 µg/mL (≈ 11.3 µM).

What about the deltaG [21] of the same molecule?
Its deltaG is -9.1 kcal/mol.

For CC1(C)/C=C\N2C(=O)C3(O)C(O)CCN3C(=O)[C@@H]2Cc2c1[nH]c1ccccc21 (stereo partly specified), which Activity [22] is on record?
Its Activity is 38.6%.

For C1=C\CCc2cc3c(o2)[C@@H]2N4CCCC/C=C\[C@H]4C[C@@]24CN(CCCC/1)CC[C@@H]34, which IC50 [23] is on record?
Its IC50 is 1.3 µg/mL (≈ 3.31 µM).

And the IC50 [24]?
The IC50 was 25.2 µM.

What about the MIC [25] of the same molecule?
The MIC was 23 µg/mL (≈ 58.6 µM).

And the MIC [26]?
Its MIC is 11 µg/mL (≈ 28 µM).

For CC1(C)/C=C\N2C(=O)[C@]3(O)[C@H](O)CCN3C(=O)[C@@H]2Cc2c1[nH]c1ccccc21, which Activity [22] is on record?
Its Activity is 36.5%.

Which Activity [22] does the source give for CC1(C)/C=C\N2C(=O)[C@]3(O)[C@@H](O)CCN3C(=O)[C@@H]2Cc2c1[nH]c1ccccc21 here?
The Activity was 30.3%.

With COc1cc([C@H]2Oc3ccc4[nH]cc5c4c3[C@H]2C(=O)NCC5)ccc1O as the molecule, how does the MIC [27] read?
Its MIC is 1 µg/mL (≈ 2.85 µM).

And the IC50 [28]?
Its IC50 is 3.2 10^-3mg/ml.

What about the MIC [29] of the same molecule?
The MIC was 1 µg/mL (≈ 2.85 µM).

What about the MIC [30] of the same molecule?
Its MIC is 10 µg/mL (≈ 28.5 µM).

With COC(=O)C1=C2Nc3c(OC)cccc3[C@]23CC[N+]2(C)C[C@H](C(C)=O)[C@H]1C[C@H]32 (stereo partly specified) as the molecule, how does the IC50 [31] read?
The IC50 was 9.2 µM.

And the IC50 [32]?
Its IC50 is 9.2 µM.

What about the IC50 [33] of the same molecule?
Its IC50 is 9.2 µM.

And the IC50 [34]?
The IC50 was 9.2 µM.

With O[C@]12C=C(c3nccc4c3[nH]c3ccccc34)[C@@H]3CCN(CCCC/C=C\CC1)C[C@@]31C[C@@H]3/C=C\CCCCN3[C@H]12 [MANZAMINE A] as the molecule, how does the Activity [35] read?
The Activity was 90%.

And the MIC [36]?
The MIC was 6.3 µg/mL (≈ 11.5 µM).

What about the MIC50 [37] of the same molecule?
Its MIC50 is 1.5 µg/mL (≈ 2.73 µM).
